Active and inactive are the calls of the source. No cut-off for these calls is given here.
What was measured:
Acetylcholinesterase = Acetylcholinesterase (Electrophorus electricus, UniProt O42275)
Description: Inhibition of electric eel AChE using acetylthiocholine iodide as substrate preincubated for 15 mins followed by substrate addition by spectrophotometric analysis

Cholinesterase = Cholinesterase (Equus caballus, UniProt P81908)
Description: Inhibition of equine serum BuChE using acetylthiocholine iodide as substrate preincubated for 15 mins followed by substrate addition by spectrophotometric analysis

[1] = Metal chelating activity of compound assessed as compound-Fe2+ complex formation at 20 uM after 30 mins by UV-Vis spectrophotometric analysis; type: functional
[2] = Metal chelating activity of compound assessed as compound-Cu2+ complex formation at 20 uM after 30 mins by UV-Vis spectrophotometric analysis; type: functional
[3] = Metal chelating activity of compound assessed as compound-Zn2+ complex formation at 20 uM after 30 mins by UV-Vis spectrophotometric analysis; type: functional
[4] = target: Amyloid-beta precursor protein (Homo sapiens) (UniProt P05067); assay: Inhibition of self-mediated aggregation of amyloid beta (1 to 42 residues) (unknown origin) at 20 uM after 48 hrs by Thioflavin T fluorescence assay relative to control
Sequence of Amyloid-beta precursor protein (Homo sapiens) (P05067 whole entry, the tested form may be a part): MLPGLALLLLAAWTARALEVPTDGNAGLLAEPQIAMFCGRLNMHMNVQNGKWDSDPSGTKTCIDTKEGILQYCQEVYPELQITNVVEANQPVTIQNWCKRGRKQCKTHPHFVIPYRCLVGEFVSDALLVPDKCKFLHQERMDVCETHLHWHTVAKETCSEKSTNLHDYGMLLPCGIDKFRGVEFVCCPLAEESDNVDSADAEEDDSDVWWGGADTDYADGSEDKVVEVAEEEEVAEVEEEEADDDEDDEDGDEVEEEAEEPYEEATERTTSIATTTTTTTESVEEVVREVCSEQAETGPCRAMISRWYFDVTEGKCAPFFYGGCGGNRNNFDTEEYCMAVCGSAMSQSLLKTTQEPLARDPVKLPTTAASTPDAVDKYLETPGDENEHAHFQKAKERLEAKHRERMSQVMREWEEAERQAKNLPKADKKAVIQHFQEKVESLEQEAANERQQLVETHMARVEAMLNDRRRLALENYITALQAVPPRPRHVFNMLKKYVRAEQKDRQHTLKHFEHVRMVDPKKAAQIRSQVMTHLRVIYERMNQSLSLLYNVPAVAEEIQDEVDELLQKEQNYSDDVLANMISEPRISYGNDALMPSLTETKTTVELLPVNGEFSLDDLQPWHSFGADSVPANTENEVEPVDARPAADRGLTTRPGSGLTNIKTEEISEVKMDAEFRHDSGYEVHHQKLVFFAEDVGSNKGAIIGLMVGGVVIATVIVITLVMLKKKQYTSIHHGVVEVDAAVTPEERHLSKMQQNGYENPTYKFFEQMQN

[5] = target: Acetylcholinesterase (Electrophorus electricus) (UniProt O42275); assay: Mixed type inhibition of electric eel AChE using acetylthiocholine iodide as substrate preincubated for 15 mins followed by substrate addition by Lineweaver-Burk plot analysis
Sequence of Acetylcholinesterase (Electrophorus electricus) (O42275 24-633 limits assumed): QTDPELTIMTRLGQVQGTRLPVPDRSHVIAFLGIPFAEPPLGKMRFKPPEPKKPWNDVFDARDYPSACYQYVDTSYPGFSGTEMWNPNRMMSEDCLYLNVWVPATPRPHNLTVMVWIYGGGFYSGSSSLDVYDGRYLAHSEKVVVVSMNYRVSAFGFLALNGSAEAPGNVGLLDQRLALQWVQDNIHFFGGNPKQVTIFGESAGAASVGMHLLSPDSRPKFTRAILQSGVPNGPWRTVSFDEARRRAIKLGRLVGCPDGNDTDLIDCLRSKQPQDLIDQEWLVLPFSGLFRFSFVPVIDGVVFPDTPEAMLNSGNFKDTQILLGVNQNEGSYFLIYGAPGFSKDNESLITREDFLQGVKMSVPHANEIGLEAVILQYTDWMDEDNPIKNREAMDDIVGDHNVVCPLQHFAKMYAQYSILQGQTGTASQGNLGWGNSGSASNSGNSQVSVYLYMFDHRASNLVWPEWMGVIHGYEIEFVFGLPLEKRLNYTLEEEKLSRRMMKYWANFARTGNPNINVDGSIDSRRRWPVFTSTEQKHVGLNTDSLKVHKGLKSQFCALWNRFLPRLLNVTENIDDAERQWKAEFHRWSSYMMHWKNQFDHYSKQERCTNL

[6] = Antioxidant activity assessed as trolox equivalent of APPH-induced radical scavenging activity at 0.117 to 10 uM preincubated for 10 mins followed by AAPH addition measured every minute for 90 mins by ORAC fluorescein assay; type: functional
[7] = Permeability of the compound at […] after 10 hrs by PAMPA; type: physicochemical; conditions: read-out: permeability

Sequence of Cholinesterase (P81908 whole entry): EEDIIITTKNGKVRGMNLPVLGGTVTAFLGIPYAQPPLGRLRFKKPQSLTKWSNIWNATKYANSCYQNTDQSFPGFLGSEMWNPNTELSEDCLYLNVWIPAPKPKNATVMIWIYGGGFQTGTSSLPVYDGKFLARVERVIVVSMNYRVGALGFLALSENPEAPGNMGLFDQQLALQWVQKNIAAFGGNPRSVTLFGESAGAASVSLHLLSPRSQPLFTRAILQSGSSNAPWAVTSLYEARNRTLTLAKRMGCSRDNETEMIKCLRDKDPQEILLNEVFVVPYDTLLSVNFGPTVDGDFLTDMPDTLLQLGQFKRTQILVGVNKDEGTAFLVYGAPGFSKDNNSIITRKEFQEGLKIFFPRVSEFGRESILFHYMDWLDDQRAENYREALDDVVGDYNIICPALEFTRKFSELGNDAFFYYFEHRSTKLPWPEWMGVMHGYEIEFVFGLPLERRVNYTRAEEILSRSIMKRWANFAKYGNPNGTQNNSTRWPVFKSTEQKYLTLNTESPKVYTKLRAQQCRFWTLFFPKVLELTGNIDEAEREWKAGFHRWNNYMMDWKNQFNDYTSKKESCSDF
Sequence of Acetylcholinesterase (O42275 whole entry): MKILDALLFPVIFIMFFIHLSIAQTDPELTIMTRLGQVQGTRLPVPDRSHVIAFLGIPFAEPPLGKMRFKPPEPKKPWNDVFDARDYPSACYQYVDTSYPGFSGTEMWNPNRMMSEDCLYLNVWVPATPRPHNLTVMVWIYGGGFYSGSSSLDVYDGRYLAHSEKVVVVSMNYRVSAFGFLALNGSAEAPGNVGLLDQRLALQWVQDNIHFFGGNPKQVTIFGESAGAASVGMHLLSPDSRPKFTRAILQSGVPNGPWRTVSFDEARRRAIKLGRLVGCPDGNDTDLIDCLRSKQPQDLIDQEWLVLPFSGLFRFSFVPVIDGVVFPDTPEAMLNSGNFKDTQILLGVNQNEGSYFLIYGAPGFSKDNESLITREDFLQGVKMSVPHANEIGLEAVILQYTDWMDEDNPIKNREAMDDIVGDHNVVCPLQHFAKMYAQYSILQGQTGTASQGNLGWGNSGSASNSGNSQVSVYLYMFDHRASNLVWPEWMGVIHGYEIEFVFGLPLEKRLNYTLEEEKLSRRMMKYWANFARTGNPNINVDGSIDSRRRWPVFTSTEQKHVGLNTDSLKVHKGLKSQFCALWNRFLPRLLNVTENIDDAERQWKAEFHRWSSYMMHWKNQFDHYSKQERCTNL

Compound	IC50 (Acetylcholinesterase) [µM]	IC50 (Cholinesterase) [µM]	other results
COc1cccc(C(=O)C(CC2CCN(Cc3ccccc3)CC2)C(C)=O)c1 (stereo not given)	1.78	14.4	–
COc1ccc(C(=O)C(CCC2CCN(Cc3cccc(C)c3)CC2)C(C)=O)cc1O (stereo not given)	0.621	16.6	–
COc1cc(C(=O)C(CCC2CCN(Cc3ccccc3)CC2)C(C)=O)ccc1O (stereo not given)	2.05	15.6	–
COc1cc(C(=O)C(CCC2CCN(Cc3cccc(C)c3)CC2)C(C)=O)ccc1O (stereo not given)	0.961	3.36	–
COCOc1ccc(C(=O)C(CCC2CCN(Cc3cccc(C)c3)CC2)C(C)=O)cc1OC (stereo not given)	0.34	3.09	–
COc1ccc(C(=O)CC(=O)CC2CCN(Cc3ccccc3)CC2)cc1O	0.187	12.4	Activity [1]: Active; Activity [2]: Active; Activity [3]: inactive; inhibition [4]: 45.3%; inhibition [5]: Active; Activity [6]: 3.07 equiv; Papp at 10 h [7]: 118 nm/s
COc1ccc(C(=O)CC(=O)CC2CCN(Cc3cccc(C)c3)CC2)cc1O	0.228	9.78	inhibition [4]: 30.4%; Activity [6]: 2.49 equiv; Papp at 10 h [7]: 113 nm/s
COc1ccc(C(=O)C(CCC2CCN(Cc3cccc(C)c3)CC2)C(C)=O)cc1OC (stereo not given)	0.263	2	–
COc1ccc(C(=O)C(CCC2CCN(Cc3ccccc3)CC2)C(C)=O)cc1OC (stereo not given)	0.373	2.82	–
COc1cccc(C(=O)C(CCC2CCN(Cc3cccc(C)c3)CC2)C(C)=O)c1 (stereo not given)	0.555	1.85	–
COc1ccc(C(=O)C(CC2CCN(Cc3ccccc3)CC2)C(C)=O)cc1OC (stereo not given)	2.55	20.8	–
COc1ccc(C(=O)C(CCC2CCN(Cc3ccccc3)CC2)C(C)=O)cc1 (stereo not given)	0.517	1.64	–
COc1ccc(C(=O)CC(=O)CC2CCN(Cc3ccccc3)CC2)cc1OC	0.149	2.33	inhibition [4]: 22%; Activity [6]: 1.1 equiv; Papp at 10 h [7]: 121 nm/s
COc1cc(/C=C/C(=O)CC(=O)/C=C/c2ccc(O)c(OC)c2)ccc1O	–	–	Activity [6]: 2.52 equiv
